Patent publication US20030138399A1, “Anti-inflammatory therapy for inflammatory mediated infection” (priority 1999, published 2003)
Where two headings read alike, the source gives them in different places.

Tests used:
[1] = test system: cultured cells infected with HIV; experiment: FIG. 19 study: cell death (cellular toxicity of the drug); assay type: cell-based
Source text: (§1) Using a culture of cells that are infected with an HIV virus that expresses luciferase when replicated, but without any treatment as a control, Asacol at the two lowest doses (30 and 300 micrograms) is able to inhibit HIV replication by approximately 20%. At the 3000 microgram dose, the amount of suppression is higher, but this is due, in part, to cellular toxicity of the drug at this dose (approximately 30% cell death vs. 13-15% cell death for 30 and 300 microgram doses; AZT produces approximately 16% cell death at a dose of 5 μg). […] While the anti-inflammatory activity of Asacol is not as potent at suppressing HIV replication as is AZT, the activity is nonetheless statistically significant.

[2] = test system: HIV pNLlucΔBgl pseudotyped with M-tropic JRFL envelope; experiment: HIV replication (luciferase expression) in activated PBMCs, M-tropic pseudotyped virus; assay type: cell-based; conditions: 4 days in culture
Procedure: (§2) The PBMCs comprise a heterogeneous population of CD4 and CD8 cells with chemokines and cytokines present in the medium. […] Replication incompetent HIV pNLlucΔBgl pseudotyped with either M-tropic JRFL or T-tropic LAI envelope was used for the infection. Luciferase expression was used to assess the degree of HIV replication after 4 days in culture. Medication treated cultures were compared with samples receiving no drug. Cells were analyzed by flow cytometry for cell death after 4 days by staining with 7-AAD.

[3] = test system: HIV virus that expresses luciferase when replicated; experiment: FIG. 19: HIV replication in cultured infected cells, luciferase by luminometer; assay type: cell-based
Procedure: Cultured cells infected with HIV were treated with 5-ASA or AZT in the amounts indicated. Luciferase expression, which indicates the amount of HIV replication, was quantified using a luminometer. The data shown represent nine separate studies.
as §1

activated PBMCs = conditions: 4 days
Procedure: as §2

[4] = test system: HIV pNLlucΔBgl pseudotyped with T-tropic LAI envelope; experiment: HIV replication (luciferase expression) in activated PBMCs, T-tropic pseudotyped virus; assay type: cell-based; conditions: 4 days in culture
Procedure: as §2

| SMILES | cell death ([1]; 30 and 300 microgram doses) | cell death ([1]; 3000 microgram dose) | % Change from untreated culture (luciferase expression), M-tropic HIV ([2]; 3 μM) | % Change from untreated culture (luciferase expression), M-tropic HIV ([2]; 30 μM) | % Change from untreated culture (luciferase expression), M-tropic HIV ([2]; 300 μM) | % Change from untreated culture (luciferase expression), M-tropic HIV ([2]; 3000 μM, *P < .05) | amount of suppression of HIV replication ([3]; 3000 microgram dose, compared with lower doses) | inhibition of HIV replication ([3]; two lowest doses (30 and 300 micrograms)) | % death (activated PBMCs; 30 μM) | % death (activated PBMCs; 300 μM) | % death (activated PBMCs; 3000 μM) | % Change from untreated culture (luciferase expression), T-Tropic HIV ([4]; 2 μM) | % Change from untreated culture (luciferase expression), T-Tropic HIV ([4]; 20 μM) | % Change from untreated culture (luciferase expression), T-Tropic HIV ([4]; 200 μM) | cell death ([1]; dose of 5 μg) | % Change from untreated culture (luciferase expression), M-tropic HIV ([2]; 5 μM, *P < .05) | % Change from untreated culture (luciferase expression), T-Tropic HIV ([4]; 5 μM, *P < .05) |
| --- | --- | --- | --- | --- | --- | --- | --- | --- | --- | --- | --- | --- | --- | --- | --- | --- | --- |
| Nc1ccc(O)c(C(=O)O)c1 [5-ASA, 5-aminosalicylic acid] | 13-15% | approximately 30% | 46.2% | 50.3% | 48.9% | 67.6* % | higher | approximately 20% | 7.3% | 9.4% | 13.3% | 3.2% | 22.4% | 26.0% |  |  |  |
| Cc1cn([C@H]2C[C@H](N=[N+]=[N-])[C@@H](CO)O2)c(=O)[nH]c1=O [AZT, zidovudine] |  |  |  |  |  |  |  |  |  |  |  |  |  |  | approximately 16% | 80.0* % | 99.3* % |
